Experimental data published in patent US20100234417A1, “THYROTROPIN RELEASING HORMONE RECEPTOR-OREXIN RECEPTOR HETERO-DIMERS/-OLIGOMERS” (DIMERIX BIOSCIENCE PTY LTD., priority 2006, published 2010).

How the values were obtained:
[1] = tested on: thyrotropin releasing hormone receptor/orexin receptor hetero-dimer/-oligomer (TRHR with OxR2); experiment: eBRET/BRET detection of TRHR-OxR2 association: TRHR/Rluc + tagged beta-arrestin + OxR2 as IG3 in HEK293 cells; type: cell-based; conditions: OxR2, FIG. 6
Method: (§1) Briefly, referring to FIGS. 1 to 3, the IGs are provided in the form of the two receptors (TRHR and OxR). One of the two is attached to an RC (IG1-RC1, IG3). A second IG (IG2-RC2) is derived from a molecule that interacts with the receptors upon ligand binding (e.g. beta-arrestin, or a mutant thereof).
Cells were seeded in 6-well plates at a density of approximately 630,000 cells/well (HEK293FT) or approximately 150,000 cells/well (COS-7) and maintained at 37° C., 5% CO2 in Complete Media (DMEM containing 0.3 mg/ml glutamine, 100 IU/ml penicillin and 100 μg/ml streptomycin (Gibco)) supplemented with 10% fetal calf serum (FCS; Gibco). Transient transfections were carried out 24 h after seeding using GeneJuice (Novagen) or Metafectene (Biontex) according to manufacturer instructions. 24 h post-transfection, cells were washed with PBS, detached using 0.05% trypsin/0.53 mM EDTA, resuspended in HEPES-buffered phenol red free Complete Media containing 5% FCS and added to a poly-L-lysine-coated white microplate (Nunc). 48 h post-transfection, eBRET assays were carried out following pre-incubation of cells with EnduRen™ (Promega) at a final concentration of 30-40 μM, at 37° C., 5% CO2 for 2 h. For original BRET studies, the HEPES-buffered phenol red free Complete Media was replaced with PBS and coelenterazine h (Molecular Probes) added to a final concentration of 5 μM immediately prior to commencing the assay. […] Filtered light emissions were sequentially measured for 3-5 s in each of the ‘donor wavelength window’ (400-475 nm) and ‘acceptor wavelength window’ (>500 nm for EGFP or 520-540 nm for EYFP, Topaz (TYFP) or Venus). The BRET signal observed between interacting proteins is normalized by subtracting the background BRET ratio. […] In the following examples, the first calculation will be used, unless the signal is described as the ‘ligand-induced BRET ratio’. […] In this case, data are shown as ‘fluorescence/luminescence’ being the ratio of light emission through the ‘acceptor wavelength window’ over the 400-475 nm emission for a particular cell sample. Unless otherwise stated, BRET signals were measured in 96-well microplates. […]
Cells not pretreated with antagonist were pretreated with PBS instead for the same amount of time. […]

[2] = tested on: thyrotropin releasing hormone receptor/orexin receptor hetero-dimer/-oligomer (TRHR with OxR1); experiment: eBRET: TRHR/Rluc + barr2/Venus + OxR1 as IG3 in HEK293 cells; type: cell-based; conditions: OxR1, FIG. 6
Method: as §1
Cells were seeded in 6-well plates at a density of approximately 630,000 cells/well (HEK293FT) or approximately 150,000 cells/well (COS-7) and maintained at 37° C., 5% CO2 in Complete Media (DMEM containing 0.3 mg/ml glutamine, 100 IU/ml penicillin and 100 μg/ml streptomycin (Gibco)) supplemented with 10% fetal calf serum (FCS; Gibco). Transient transfections were carried out 24 h after seeding using GeneJuice (Novagen) or Metafectene (Biontex) according to manufacturer instructions. 24 h post-transfection, cells were washed with PBS, detached using 0.05% trypsin/0.53 mM EDTA, resuspended in HEPES-buffered phenol red free Complete Media containing 5% FCS and added to a poly-L-lysine-coated white microplate (Nunc). 48 h post-transfection, eBRET assays were carried out following pre-incubation of cells with EnduRen™ (Promega) at a final concentration of 30-40 μM, at 37° C., 5% CO2 for 2 h. For original BRET studies, the HEPES-buffered phenol red free Complete Media was replaced with PBS and coelenterazine h (Molecular Probes) added to a final concentration of 5 μM immediately prior to commencing the assay. […] Filtered light emissions were sequentially measured for 3-5 s in each of the ‘donor wavelength window’ (400-475 nm) and ‘acceptor wavelength window’ (>500 nm for EGFP or 520-540 nm for EYFP, Topaz (TYFP) or Venus). The BRET signal observed between interacting proteins is normalized by subtracting the background BRET ratio. […] In this case, data are shown as ‘fluorescence/luminescence’ being the ratio of light emission through the ‘acceptor wavelength window’ over the 400-475 nm emission for a particular cell sample. Unless otherwise stated, BRET signals were measured in 96-well microplates. […]

[3] = tested on: animals studied (narcolepsy); conditions: cited from earlier work
[4] = 10^−6M SB-334867-A approx. 40 minutes before 10^−6M OxA
[5] = 10^−6M SB-334867-A approx. 40 minutes before 10^−6M TRH and OxA
[6] = dose- and time-dependent manner

Which “effect of antagonist pretreatment on OxA-induced eBRET signal” value [1, 4] does the source give for `Cc1nc2ccc(NC(=O)Nc3ccnc4cccnc34)cc2o1.Cl` [SB-334867-A, 1-(2-methylbenzoxazol-6-yl)-3-[1,5]naphthyridin-4-yl urea hydrochloride] here?
The value was “not affected”.

What about the “effect of antagonist pretreatment on TRH + OxA-induced eBRET signal” value [1, 5] of the same compound?
The value was “did not differ”.

What about the “effect of antagonist pretreatment on OxA-induced eBRET signal” value [2, 4] of the same compound?
The value was “reduced”.

What about the “effect of antagonist pretreatment on TRH + OxA-induced eBRET signal” value [2, 5] of the same compound?
The value was “reduced”.

Which “rapid eye movement (REM) sleep” value [3, 6] does the source give for `CN1C(=O)C[C@@H](C(=O)N[C@@H](Cc2c[nH]cn2)C(=O)N2CCC[C@H]2C(N)=O)NC1=O.O.O.O.O` [TA-0910] here?
The value was “significantly reduced”.

And the “slow wave sleep (SWS)” value [3, 6]?
Its value is “significantly reduced”.

And the cataplexy ([3]; in most of the animals studied)?
The cataplexy was “completely suppressed”.
